Experimental data: patent US8741917B2, “Benzo [C] phenanthridines as antimicrobial agents” (Rutgers, The State University of New Jersey, priority 2009, dated 2014)
Read-outs that look alike come from different tables or passages of the source.

Assays:
[1] = test system: MRSA; test: Planktonic antibacterial broth microdilution assay; settings: Staphylococcus aureus
[2] = test system: Staphylococcus aureus; test: Planktonic antibacterial broth microdilution assay; type: cell-based; settings: 24 hours continuous drug exposure
[3] = target: T1, Bacillus subtilis FtsZ (Bacillus subtilis, UniProt P17865); test: Fluorescence-based competition binding assay (displacement of BODIPY-GTPγS from FtsZ); settings: FIG. 8; reduction reflects binding to FtsZ and release of BODIPY-GTPγS
T1 sequence (P17865 whole entry): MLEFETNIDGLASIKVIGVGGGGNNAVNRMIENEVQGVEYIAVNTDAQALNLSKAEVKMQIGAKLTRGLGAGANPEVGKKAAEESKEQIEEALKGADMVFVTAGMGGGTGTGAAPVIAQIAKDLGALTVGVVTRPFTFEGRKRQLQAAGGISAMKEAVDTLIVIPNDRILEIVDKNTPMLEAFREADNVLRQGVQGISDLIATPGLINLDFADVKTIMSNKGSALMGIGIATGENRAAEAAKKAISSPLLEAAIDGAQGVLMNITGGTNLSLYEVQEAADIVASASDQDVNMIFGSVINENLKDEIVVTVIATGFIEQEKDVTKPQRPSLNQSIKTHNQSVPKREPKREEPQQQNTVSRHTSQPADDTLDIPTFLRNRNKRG
From the text: B[c]P binding to FtsZ can be tested using a fluorescence-based competition binding assay using purified FtsZ and a commercially available GTPγS analog where the nucleotide is covalently conjugated via its sulfur atom to the fluorescent dye BODIPY (DIPYrromethene BOron difluoride). Upon binding to FtsZ, BODIPY-GTPγS undergoes a dramatic increase in fluorescence emission intensity (I) at 510 nm. This binding-induced change in BODIPY-GTPγS fluorescence provides the dissociation constant (Kd-GTP) of the nucleotide for the protein through analysis of fluorescence titration profiles with the following formalism, which is predicated on a one-to-one binding stoichiometry:
[formula] I0 and I are the fluorescence emission intensities of BODIPY-GTPγS in the absence and presence of a given FtsZ concentration, respectively, I∞ is the fluorescence emission intensity of BODIPY-GTPγS in the presence of an infinite FtsZ concentration, and [GTP]tot and [FtsZ]tot are the total concentrations of BODIPY-GTPγS and FtsZ, respectively. […]
I0 and I are the fluorescence emission intensities of the FtsZ-BODIPY-GTPγS complex in the absence and presence of a given compound concentration, respectively, I∞ is the fluorescence emission intensity of the FtsZ-BODIPY-GTPγS complex in the presence of infinite compound concentration, [Compd]tot is the total compound concentration, and p is the Hill slope. […]

[4] = test system: Bacillus subtilis; test: Planktonic antibacterial broth microdilution assay; type: cell-based; settings: 24 hours continuous drug exposure
[5] = test system: Enterococcus faecalis; test: Planktonic antibacterial broth microdilution assay; type: cell-based; settings: 24 hours continuous drug exposure
[6] = target: T1, Bacillus subtilis FtsZ; test: 90°-angle light scattering assay of FtsZ polymerization; type: biochemical; settings: compound 40 μM; for Maximal Light Scattering: readout of extent of polymerization, no compound: 3.40; for Time to Reach Half-Maximal Light Scattering: readout of rate of polymerization, no compound: 91.6
Experimental: B[c]P inhibition of FtsZ polymerization can be tested using a 90°-angle light scattering assay for monitoring drug impact on FtsZ polymerization. This assay is premised on the increased light scattering properties of polymeric FtsZ relative to the monomeric form of the protein. To this end, the light scattering at 600 nm of 5 μM FtsZ is continuously monitored under polymerization conditions in the absence or presence of a B[c]P compound at concentrations ranging from 40 to 80 μM.
Polymerization is initiated by addition of 0.5 mM GTP. The rate and extent of FtsZ polymerization can be quantified by analyzing the light scattering profiles to derive maximal light scattering values (which provide a readout of the extent of polymerization) as well as the times required to reach half-maximal light scattering values (which provide a readout of the rate of polymerization).

[7] = test system: Mycobacterium tuberculosis; test: Planktonic antibacterial broth microdilution assay; type: cell-based; settings: 24 hours continuous drug exposure

Compound	MIC ([1]; read-out: MIC vs. MRSA) [µg/mL]	also measured
COc1cc2c(ccc3c4ccc(OC)c(OC)c4c[n+](C)c23)c(-c2ccoc2)c1OC [Example 17]	< 16	
COc1cc2c(ccc3c4ccc(OC)c(OC)c4c[n+](C)c23)c(C2CCCCC2)c1OC [Example 10]	< 16	
COc1cc2c(ccc3c4ccc(OC)c(OC)c4c[n+](C)c23)c(-c2ccc(S(=O)(=O)N(C)C)cc2)c1OC [Example 18]	< 16	
COc1cc2c(ccc3c4ccc(OC)c(OC)c4c[n+](C)c23)c(-c2ccccc2)c1OC [Example 12]	< 16	
COc1cc2ccc3c4ccc(OC)c(OC)c4c[n+](C)c3c2cc1OC [Comparative Example 2, reference compound]	64	
COc1cc2c(ccc3c4ccc5c(c4c[n+](C)c23)OCO5)c(Cc2ccccc2)c1OC [Example 5]	< 16	
COc1ccc2c(c1OC)CN(C)c1c-2ccc2c(C3CC3)c(OC)c(OC)cc12 [Example 21]	< 16	
COc1cc2c(ccc3c4ccc5c(c4c[n+](C)c23)OCO5)c(-c2ccc(-c3ccccc3)cc2)c1OC [Example 3, 8-Biphenyl-4-yl-9,10-dimethoxy-12-methyl-1,3-dioxa-12-azoniacyclopenta[a]chrysene chloride]	< 16	MIC [2]: 2 µg/mL; MIC ([1]; 24 h, read-out: MRSA MIC): 8 µg/mL; fluorescence of FtsZ-bound BODIPY-GTPγS upon addition of compound [3]: decreases; MIC [4]: 2 µg/mL; MIC [5]: 16 µg/mL; Maximal Light Scattering [6]: 1.76 a.u.; Time to Reach Half-Maximal Light Scattering [6]: 600.5 s; MIC [7]: 4 µg/mL
COc1cc2c(ccc3c4ccc(OC)c(OC)c4c[n+](C)c23)c(-c2cccnc2)c1OC [Example 22]	< 16	
COc1cc2c(-c3ccc(-c4ccccc4)cc3)cc3c4ccc(OC)c(OC)c4c[n+](C)c3c2cc1OC [Example 23]	< 16	
COc1cc2c(ccc3c4ccc(OC)c(OC)c4c[n+](C)c23)c(-c2ccc(CCN3CCOCC3)cc2)c1OC [Example 19]	< 16	
COc1cc2c(ccc3c4ccc(OC)c(OC)c4c[n+](C)c23)c(C2=CCCCC2)c1OC [Example 9]	< 16	
COc1ccc2c(c1OC)C(OC)N(C)c1c-2ccc2c(-c3ccc(-c4ccccc4)cc3)c(OC)c(OC)cc12 (stereo not drawn) [Example 25]	< 16	
COc1ccc2c(c[n+](C)c3c4cc5c(cc4ccc23)OCO5)c1OC [Chelerythrine]		MIC [2]: 8 µg/mL; MIC ([1]; 24 h, read-out: MRSA MIC): 16 µg/mL; MIC [4]: 4 µg/mL; MIC [5]: 32 µg/mL; Maximal Light Scattering [6]: 2.83 a.u.; Time to Reach Half-Maximal Light Scattering [6]: 205.3 s; MIC [7]: 8 µg/mL
C[n+]1cc2c3c(ccc2c2ccc4cc5c(cc4c21)OCO5)OCO3 [Sanguinarine]		MIC [2]: 8 µg/mL; MIC ([1]; 24 h, read-out: MRSA MIC): 16 µg/mL; MIC [4]: 4 µg/mL; MIC [5]: 32 µg/mL; MIC [7]: 8 µg/mL
COc1cc2c(-c3ccc(-c4ccccc4)cc3)cc3c4ccc5c(c4c[n+](C)c3c2cc1OC)OCO5 [Example 13]	< 16	
COc1ccc2c(c1OC)C(N)N(C)c1c-2ccc2c(-c3ccc(-c4ccccc4)cc3)c(OC)c(OC)cc12 (stereo not drawn) [Example 24]	< 16	
COc1cc2c(-c3ccccc3)cc3c4ccc(OC)c(OC)c4c[n+](C)c3c2cc1OC [Example 14]	< 16	
COc1cc2c(ccc3c4ccc5c(c4c[n+](C)c23)OCO5)c(-c2ccccc2)c1OC [Example 4]	< 16	
COc1cc(-c2c(OC)c(OC)cc3c2ccc2c4ccc(OC)c(OC)c4c[n+](C)c32)cc(OC)c1OC [Example 15]	< 16	
COc1cc2c(ccc3c4ccc(OC)c(OC)c4c[n+](C)c23)c(-c2ccc(-c3ccccc3)cc2)c1OC [Example 7]	< 16	
COc1ccc(-c2c(OC)c(OC)cc3c2ccc2c4ccc5c(c4c[n+](C)c32)OCO5)cc1 [Example 6]	< 16	
COc1cc2ccc3c4ccc5c(c4c[n+](C)c3c2cc1OC)OCO5 [Comparative Example 1, reference compound]	32	
COc1cc2c(ccc3c4ccc(OC)c(OC(C)C)c4c[n+](C)c23)c(-c2ccccc2)c1OC [Example 8]	< 16	
COc1cc2c(ccc3c4ccc(OC)c(OC)c4c[n+](C)c23)c(C2CC2)c1OC [Example 11]	< 16	
COc1cc2c(ccc3c4ccc(OC)c(OC)c4c[n+](C)c23)c(-c2ccc(N(C)C)cc2)c1OC [Example 16]	< 16	
COc1ccc2c(c1OC)CN(C)c1c-2ccc2c(-c3ccc(-c4ccccc4)cc3)c(OC)c(OC)cc12 [Example 20]	< 16	
